Experimental data taken from article PMC5218480 (PLoS ONE, 2017).

Tested on: MV-4-11 cells
Assay: Gene expression microarray analysis (Affymetrix PrimeView) and GSEA
Format: cell-based, human
Design: RFU PODN (11730768_x_at) / Fold change /veh PODN (11730768_x_at) / RFU LINC00158 (11744669_a_at) / Fold change /veh LINC00158 (11744669_a_at) / RFU DUSP10 (11751237_a_at) / Fold change /veh DUSP10 (11751237_a_at) / RFU ID3 (11757404_x_at) / Fold change /veh ID3 (11757404_x_at) / RFU PLEKHG5 (11737974_s_at) / Fold change /veh PLEKHG5 (11737974_s_at) / RFU LRRC4B (11730491_at) / Fold change /veh LRRC4B (11730491_at) / RFU GIMAP4 (11747438_a_at) / Fold change /veh GIMAP4 (11747438_a_at) / RFU KRT8 (11758183_x_at) / Fold change /veh KRT8 (11758183_x_at) / RFU CNN1 (11734310_a_at) / Fold change /veh CNN1 (11734310_a_at) / RFU VPS37D (11726825_at) / Fold change /veh VPS37D (11726825_at) / RFU C10orf10 (11716522_x_at) / Fold change /veh C10orf10 (11716522_x_at) / RFU KIR2DL2 /// KIR2DL4 /// KIR2DL5A /// KIR2DL5B /// KIR2DS1 /// KIR2DS2 /// KIR2DS3 /// KIR2DS4 /// KIR3DL3 /// KIR3DL3 /// KIR3DS1 (11738374_at) / Fold change /veh KIR2DL2 /// KIR2DL4 /// KIR2DL5A /// KIR2DL5B /// KIR2DS1 /// KIR2DS2 /// KIR2DS3 /// KIR2DS4 /// KIR3DL3 /// KIR3DL3 /// KIR3DS1 (11738374_at) / RFU C1QL1 (11718748_at) / Fold change /veh C1QL1 (11718748_at) / RFU TMPRSS4 (11747572_a_at) / Fold change /veh TMPRSS4 (11747572_a_at) / RFU HAMP (11756126_x_at) / Fold change /veh HAMP (11756126_x_at) / RFU RNFT2 (11725882_a_at) / Fold change /veh RNFT2 (11725882_a_at) / RFU NR4A2 (11747474_a_at) / Fold change /veh NR4A2 (11747474_a_at) / RFU ABCC12 (11746883_a_at) / Fold change /veh ABCC12 (11746883_a_at) / RFU TMEM136 (11760407_x_at) / Fold change /veh TMEM136 (11760407_x_at) / RFU CLDN22 /// WWC2 (11732394_at) / Fold change /veh CLDN22 /// WWC2 (11732394_at) / RFU HLA-DPB1 (11760878_x_at) / Fold change /veh HLA-DPB1 (11760878_x_at) / RFU SPINT1 (11716480_a_at) / Fold change /veh SPINT1 (11716480_a_at) / RFU GAP43 (11754022_s_at) / Fold change /veh GAP43 (11754022_s_at) / RFU A4GNT (11735810_at) / Fold change /veh A4GNT (11735810_at) / RFU PRB3 (11715151_x_at) / Fold change /veh PRB3 (11715151_x_at) / RFU TUBB4B (11761932_at) / Fold change /veh TUBB4B (11761932_at) / RFU CAPN14 (11732068_a_at) / Fold change /veh CAPN14 (11732068_a_at) / RFU TMCC2 (11721928_a_at) / Fold change /veh TMCC2 (11721928_a_at) / RFU IRGQ (11745062_a_at) / Fold change /veh IRGQ (11745062_a_at) / RFU FAM174B (11720279_a_at) / Fold change /veh FAM174B (11720279_a_at) / RFU TMPRSS4 (11748680_a_at) / Fold change /veh TMPRSS4 (11748680_a_at) / RFU FAM212B (11763350_a_at) / Fold change /veh FAM212B (11763350_a_at) / RFU PLEKHG5 (11743358_a_at) / Fold change /veh PLEKHG5 (11743358_a_at) / RFU ZSCAN30 (11745921_a_at) / Fold change /veh ZSCAN30 (11745921_a_at) / RFU CMKLR1 (11741424_a_at) / Fold change /veh CMKLR1 (11741424_a_at) / RFU LOC101060620 /// MAPK8IP1 (11723275_at) / Fold change /veh LOC101060620 /// MAPK8IP1 (11723275_at) / RFU SPTSSB (11747773_x_at) / Fold change /veh SPTSSB (11747773_x_at) / RFU PRSS12 (11739890_at) / Fold change /veh PRSS12 (11739890_at) / RFU BIN1 (11741810_x_at) / Fold change /veh BIN1 (11741810_x_at) / RFU WNT11 (11732464_a_at) / Fold change /veh WNT11 (11732464_a_at) / RFU C10orf10 (11716521_a_at) / Fold change /veh C10orf10 (11716521_a_at) / RFU C5orf56 (11738089_at) / Fold change /veh C5orf56 (11738089_at) / RFU CYB561 (11721691_x_at) / Fold change /veh CYB561 (11721691_x_at) / RFU ANKRD19P (11752326_a_at) / Fold change /veh ANKRD19P (11752326_a_at) / RFU OR2T12 /// OR2T33 /// OR2T8 (11738714_s_at) / Fold change /veh OR2T12 /// OR2T33 /// OR2T8 (11738714_s_at) / RFU VCAN (11748164_a_at) / Fold change /veh VCAN (11748164_a_at) / RFU JSRP1 (11732532_at) / Fold change /veh JSRP1 (11732532_at) / RFU KRTAP10-11 (11738290_x_at) / Fold change /veh KRTAP10-11 (11738290_x_at) / RFU MYO3A (11730013_a_at) / Fold change /veh MYO3A (11730013_a_at) / RFU EBF3 (11725865_a_at) / Fold change /veh EBF3 (11725865_a_at) / RFU CAMK2N1 (11719241_x_at) / Fold change /veh CAMK2N1 (11719241_x_at) / RFU C5orf56 (11738088_a_at) / Fold change /veh C5orf56 (11738088_a_at) / RFU OLFML3 (11715873_a_at) / Fold change /veh OLFML3 (11715873_a_at) / RFU LOC100653217 /// NTM (11731650_a_at) / Fold change /veh LOC100653217 /// NTM (11731650_a_at) / RFU MAPK11 (11762145_a_at) / Fold change /veh MAPK11 (11762145_a_at) / RFU FIZ1 (11724087_x_at) / Fold change /veh FIZ1 (11724087_x_at) / RFU OASL (11726364_x_at) / Fold change /veh OASL (11726364_x_at) / RFU SOX15 (11748057_x_at) / Fold change /veh SOX15 (11748057_x_at) / RFU CD79A (11719716_a_at) / Fold change /veh CD79A (11719716_a_at) / RFU HIST1H1D (11736915_at) / Fold change /veh HIST1H1D (11736915_at) / RFU CASKIN2 (11723855_a_at) / Fold change /veh CASKIN2 (11723855_a_at) / RFU LOC730098 (11760151_x_at) / Fold change /veh LOC730098 (11760151_x_at) / RFU OR4N2 (11742367_at) / Fold change /veh OR4N2 (11742367_at) / RFU PRRT2 (11749266_a_at) / Fold change /veh PRRT2 (11749266_a_at) / RFU SNX32 (11753110_a_at) / Fold change /veh SNX32 (11753110_a_at) / RFU CDHR5 (11726645_a_at) / Fold change /veh CDHR5 (11726645_a_at) / RFU RCAN1 (11760418_a_at) / Fold change /veh RCAN1 (11760418_a_at) / RFU FAM167A (11723789_a_at) / Fold change /veh FAM167A (11723789_a_at) / RFU FAM26E (11764081_at) / Fold change /veh FAM26E (11764081_at) / RFU ISYNA1 (11749810_s_at) / Fold change /veh ISYNA1 (11749810_s_at) / RFU ACY1 (11761880_at) / Fold change /veh ACY1 (11761880_at) / RFU 11764098_at / Fold change /veh 11764098_at / RFU SAMD14 (11745864_x_at) / Fold change /veh SAMD14 (11745864_x_at) / RFU NPB (11741838_a_at) / Fold change /veh NPB (11741838_a_at) / RFU TMPRSS6 (11731388_a_at) / Fold change /veh TMPRSS6 (11731388_a_at) / RFU KRTAP10-2 (11738614_at) / Fold change /veh KRTAP10-2 (11738614_at) / RFU ARHGAP8 /// PRR5-ARHGAP8 (11727945_x_at) / Fold change /veh ARHGAP8 /// PRR5-ARHGAP8 (11727945_x_at) / RFU KRTAP5-7 /// NADSYN1 (11734609_at) / Fold change /veh KRTAP5-7 /// NADSYN1 (11734609_at) / RFU RASL12 (11751679_a_at) / Fold change /veh RASL12 (11751679_a_at) / RFU CDKN2B (11736163_a_at) / Fold change /veh CDKN2B (11736163_a_at) / RFU PRF1 (11729649_at) / Fold change /veh PRF1 (11729649_at) / RFU, ZNF638 /// ZNF638-IT1 / Fold change vs veh, ZNF638 /// ZNF638-IT1 / RFU, PANK3 / Fold change vs veh, PANK3 / RFU, SH3YL1 / Fold change vs veh, SH3YL1 / RFU, ZEB2 / Fold change vs veh, ZEB2 / RFU, NRIP1 / Fold change vs veh, NRIP1 / RFU, PTTG1IP / Fold change vs veh, PTTG1IP / RFU, CAPN2 / Fold change vs veh, CAPN2 / RFU, MED14 / Fold change vs veh, MED14 / RFU, SNORA58 / Fold change vs veh, SNORA58 / RFU, C1orf63 / Fold change vs veh, C1orf63 / RFU, LRRFIP1 / Fold change vs veh, LRRFIP1 / RFU, NDUFAF7 / Fold change vs veh, NDUFAF7 / RFU, SLC12A2 / Fold change vs veh, SLC12A2 / RFU, IBTK / Fold change vs veh, IBTK / RFU, ESF1 / Fold change vs veh, ESF1 / Fold change vs veh, TMEM50B / RFU, TAOK1 / Fold change vs veh, TAOK1 / RFU, ACBD3 / Fold change vs veh, ACBD3 / RFU, TMA16 / Fold change vs veh, TMA16 / RFU, RWDD3 / Fold change vs veh, RWDD3 / RFU, BCAT1 / Fold change vs veh, BCAT1 / RFU, EDEM3 / Fold change vs veh, EDEM3 / RFU, TMEM33 / Fold change vs veh, TMEM33 / RFU, WDR75 / Fold change vs veh, WDR75 / RFU, AHCTF1 / Fold change vs veh, AHCTF1 / RFU, TFRC / Fold change vs veh, TFRC / RFU, ZDHHC17 / Fold change vs veh, ZDHHC17 / RFU, NOM1 / Fold change vs veh, NOM1 / RFU, ARL8B / Fold change vs veh, ARL8B / RFU, ZBTB11 / Fold change vs veh, ZBTB11 / RFU, TAMM41 / Fold change vs veh, TAMM41 / RFU, KIAA1704 /// LOC100996395 / Fold change vs veh, KIAA1704 /// LOC100996395 / RFU, ING1 / Fold change vs veh, ING1 / RFU, TRMT61B / Fold change vs veh, TRMT61B / RFU, FUBP3 / Fold change vs veh, FUBP3 / RFU, TP53 / Fold change vs veh, TP53 / RFU, TNKS2 / Fold change vs veh, TNKS2 / RFU, ZFP14 / Fold change vs veh, ZFP14 / RFU, ACTR2 / Fold change vs veh, ACTR2 / RFU, PPP3R1 / Fold change vs veh, PPP3R1 / RFU, PIK3R1 / Fold change vs veh, PIK3R1 / RFU, HNRNPA1 / Fold change vs veh, HNRNPA1 / RFU, RNF170 / Fold change vs veh, RNF170 / RFU, ZNF28 / Fold change vs veh, ZNF28 / RFU, RNGTT / Fold change vs veh, RNGTT / RFU, OGT / Fold change vs veh, OGT / RFU, BRD1 / Fold change vs veh, BRD1 / RFU, MARS / Fold change vs veh, MARS / RFU, ZNF655 / Fold change vs veh, ZNF655 / RFU, FAHD1 / Fold change vs veh, FAHD1 / RFU, BDP1 / Fold change vs veh, BDP1 / RFU, LRRCC1 / Fold change vs veh, LRRCC1 / RFU, ARID1A / Fold change vs veh, ARID1A / RFU, ZNF146 / Fold change vs veh, ZNF146 / RFU, ZNF330 / Fold change vs veh, ZNF330 / RFU, GPN3 / Fold change vs veh, GPN3 / RFU, C9orf123 / Fold change vs veh, C9orf123 / RFU, N4BP2L2 / Fold change vs veh, N4BP2L2 / RFU, ARFIP1 / Fold change vs veh, ARFIP1 / RFU, FAM179B / Fold change vs veh, FAM179B / RFU, BCL10 / Fold change vs veh, BCL10 / RFU, UHRF1BP1L / Fold change vs veh, UHRF1BP1L / RFU, BET1 / Fold change vs veh, BET1 / RFU, CNOT2 / Fold change vs veh, CNOT2 / RFU, ZNF268 / Fold change vs veh, ZNF268 / Fold change vs veh, ZNF507 / RFU, DGCR2 / Fold change vs veh, DGCR2 / RFU, WDSUB1 / Fold change vs veh, WDSUB1 / Fold change vs veh, HSP90B1 /// MIR3652 / RFU, ADSS / Fold change vs veh, ADSS / RFU, GK / Fold change vs veh, GK / RFU, ZNF148 / Fold change vs veh, ZNF148 / RFU, TAF9 / Fold change vs veh, TAF9 / RFU, SLC1A5 / Fold change vs veh, SLC1A5 / RFU, SLMO2 / Fold change vs veh, SLMO2 / RFU, ABCC4 / Fold change vs veh, ABCC4 / RFU, LOC101060439 /// RAP1B / Fold change vs veh, LOC101060439 /// RAP1B / RFU, RFX7 / Fold change vs veh, RFX7 / RFU, GTPBP10 / Fold change vs veh, GTPBP10 / RFU, CNEP1R1 / Fold change vs veh, CNEP1R1 / RFU, BIVM-ERCC5 /// ERCC5 / Fold change vs veh, BIVM-ERCC5 /// ERCC5 / RFU, ILF3 / Fold change vs veh, ILF3 / RFU 11762660_at / Fold change /veh 11762660_at / RFU VCAN (11757783_s_at) / Fold change /veh VCAN (11757783_s_at) / RFU DDX43 (11728927_at) / Fold change /veh DDX43 (11728927_at) / RFU KRT8 (11758188_x_at) / Fold change /veh KRT8 (11758188_x_at) / RFU NKD1 (11759106_at) / Fold change /veh NKD1 (11759106_at) / RFU SRD5A1 (11742802_a_at) / Fold change /veh SRD5A1 (11742802_a_at) / RFU TPSAB1 /// TPSB2 (11721975_s_at) / Fold change /veh TPSAB1 /// TPSB2 (11721975_s_at) / RFU GSTM3 (11746129_a_at) / Fold change /veh GSTM3 (11746129_a_at) / RFU IL23R (11737362_x_at) / Fold change /veh IL23R (11737362_x_at) / RFU TMEM51 (11727254_a_at) / Fold change /veh TMEM51 (11727254_a_at) / RFU PIWIL2 (11732686_x_at) / Fold change /veh PIWIL2 (11732686_x_at) / RFU ORM1 (11744905_x_at) / Fold change /veh ORM1 (11744905_x_at) / RFU CCDC152 (11743942_at) / Fold change /veh CCDC152 (11743942_at) / RFU ECM1 (11717891_a_at) / Fold change /veh ECM1 (11717891_a_at) / RFU IL23R (11748794_a_at) / Fold change /veh IL23R (11748794_a_at) / RFU TNFAIP8L3 (11732012_x_at) / Fold change /veh TNFAIP8L3 (11732012_x_at) / RFU MBOAT4 (11741988_at) / Fold change /veh MBOAT4 (11741988_at) / RFU 11764193_at / Fold change /veh 11764193_at / RFU TMEM53 (11763286_at) / Fold change /veh TMEM53 (11763286_at) / RFU MAGEB2 (11727129_at) / Fold change /veh MAGEB2 (11727129_at) / RFU TMEM200A (11744735_a_at) / Fold change /veh TMEM200A (11744735_a_at) / RFU CCDC152 (11751479_a_at) / Fold change /veh CCDC152 (11751479_a_at) / RFU FAM211A (11726209_a_at) / Fold change /veh FAM211A (11726209_a_at) / RFU RGS16 (11746705_a_at) / Fold change /veh RGS16 (11746705_a_at) / RFU VCAN (11755009_s_at) / Fold change /veh VCAN (11755009_s_at) / RFU RHOB (11743442_s_at) / Fold change /veh RHOB (11743442_s_at) / RFU RGS16 (11720943_a_at) / Fold change /veh RGS16 (11720943_a_at) / RFU RGS16 (11720944_at) / Fold change /veh RGS16 (11720944_at) / RFU, VPS4B / Fold change vs veh, VPS4B / RFU, CREB1 / Fold change vs veh, CREB1 / RFU, DNAJC13 / Fold change vs veh, DNAJC13 / RFU, GNAQ / Fold change vs veh, GNAQ / RFU, CDK5R1 / Fold change vs veh, CDK5R1 / RFU, ZRANB3 / Fold change vs veh, ZRANB3 / RFU, CUL4A / Fold change vs veh, CUL4A / RFU, CCNY / Fold change vs veh, CCNY / RFU, UFL1 / Fold change vs veh, UFL1 / RFU, COG3 / Fold change vs veh, COG3 / RFU, DIAPH2 / Fold change vs veh, DIAPH2 / RFU, SKA2 / Fold change vs veh, SKA2 / RFU, AFF3 / Fold change vs veh, AFF3 / RFU, LMF1 / Fold change vs veh, LMF1 / RFU, IPO11 / Fold change vs veh, IPO11 / RFU, DFFB / Fold change vs veh, DFFB / RFU, FOXP1 / Fold change vs veh, FOXP1 / RFU, CARD8 / Fold change vs veh, CARD8 / RFU, STRN3 / Fold change vs veh, STRN3 / RFU, ADK / Fold change vs veh, ADK / RFU, RASSF2 / Fold change vs veh, RASSF2 / RFU, WIPF1 / Fold change vs veh, WIPF1 / RFU, LARP1B / Fold change vs veh, LARP1B / RFU, RASA1 / Fold change vs veh, RASA1 / RFU, RB1 / Fold change vs veh, RB1 / RFU, PPFIA1 / Fold change vs veh, PPFIA1 / RFU, MAT2A / Fold change vs veh, MAT2A / RFU, CCT5 / Fold change vs veh, CCT5 / RFU, WDR92 / Fold change vs veh, WDR92 / RFU, CUX1 / Fold change vs veh, CUX1 / RFU, TTC7A / Fold change vs veh, TTC7A / RFU, TMEM135 / Fold change vs veh, TMEM135 / RFU, DEPTOR / Fold change vs veh, DEPTOR / RFU, CPM / Fold change vs veh, CPM / RFU, DNAJB6 / Fold change vs veh, DNAJB6 / RFU, CACNA2D3 / Fold change vs veh, CACNA2D3 / RFU, DTX4 / Fold change vs veh, DTX4 / RFU, TFCP2 / Fold change vs veh, TFCP2 / RFU, GMCL1 /// GMCL1P1 / Fold change vs veh, GMCL1 /// GMCL1P1 / RFU, AEBP2 / Fold change vs veh, AEBP2 / RFU, SNHG1 /// SNORD22 /// SNORD25 /// SNORD26 /// SNORD27 /// SNORD28 /// SNORD29 /// SNORD31 / Fold change vs veh, SNHG1 /// SNORD22 /// SNORD25 /// SNORD26 /// SNORD27 /// SNORD28 /// SNORD29 /// SNORD31 / Fold change (Aza/veh), C12orf56 (ProbeSet 11735607_a_at) / Fold change (ACY-1035/veh), C12orf56 (ProbeSet 11735607_a_at) / Fold change (Aza/veh), FGFR1OP (ProbeSet 11751329_s_at) / Fold change (ACY-1035/veh), FGFR1OP (ProbeSet 11751329_s_at) / Fold change (Aza/veh), VPS36 (ProbeSet 11739960_a_at) / Fold change (ACY-1035/veh), VPS36 (ProbeSet 11739960_a_at) / RFU SYPL1 (11715823_x_at) / Fold change /veh SYPL1 (11715823_x_at) / RFU IGFBP7 (11715501_s_at) / Fold change /veh IGFBP7 (11715501_s_at) / RFU REEP3 (11722064_at) / Fold change /veh REEP3 (11722064_at) / RFU IGLL1 (11728026_x_at) / Fold change /veh IGLL1 (11728026_x_at): dose or concentration left out as unconfirmed
Settings: MV-4-11 cells, 48 hours

Question: With `Nc1ncn([C@@H]2O[C@H](CO)[C@@H](O)[C@H]2O)c(=O)n1` [azacitidine] as the molecule, how does the “RFU CD79A (11719716_a_at)” value read?
Answer: The value was 8.73 RFU.
